Results taken from ChEMBL document CHEMBL1201862, “PubChem BioAssay data set” (2004).
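A five-concentration, 48-hour dose response in 96-well plates underlies each endpoint, interpolated linearly between surrounding concentrations. GI50 marks 50% less growth.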 Activity calls are given as the source filed them. No stated cut-off is given here; in the data, active = GI50 up to about 1.1 µM and inactive = higher.

Tests used:
Test in all cases: DTP human tumour cell line panel, 48 h
[1] = tested on: DLD-1
[2] = tested on: DMS-114
[3] = tested on: DMS-273
[4] = tested on: LXFL 529
[5] = tested on: M19-MEL
[6] = tested on: RXF 631
[7] = tested on: SNB-78
[8] = tested on: XF498
[9] = tested on: HOP-18

Measured: GI50

CCOc1ccc(OCC(=O)O)c2c1CCCC2=O
inactive: [1] > 100 µM | [2] > 100 µM | [3] > 100 µM | [4] > 100 µM | [5] > 100 µM | [6] > 100 µM | [7] > 100 µM | [8] > 100 µM

CCOC(OCC)(OCC)C(Br)CC (stereo unspecified)
inactive: [1] 22 µM | [2] 12.5 µM | [3] 19.1 µM | [9] > 100 µM | [4] 51.9 µM | [5] > 100 µM | [6] > 100 µM | [7] > 100 µM | [8] > 100 µM

N=C(N)NCCCC(NCc1c2ccccc2[n+]([O-])c2ccccc12)C(=O)O (stereo unspecified)
inactive: [1] 38.8 µM | [2] 26.4 µM | [3] 40.4 µM | [9] > 100 µM | [4] 32.7 µM | [6] 59.8 µM | [7] 66.7 µM

CCN(CC)CCOC(c1ccccc1)c1ccccc1.CCOC(=O)Nc1ccc(S(=O)(=O)OC)cc1.CCOC(=O)Nc1ccc(S(=O)(=O)OC)cc1.Nc1ccc(C(=O)O)c(O)c1
inactive: [1] > 100 µM | [2] > 100 µM | [9] > 100 µM | [4] > 100 µM | [5] > 100 µM | [6] > 100 µM | [7] > 100 µM

Cc1cc(=O)oc2c(C3=NN(C=O)C(c4ccccc4)C3)c(O)ccc12 (stereo unspecified)
inactive: [1] > 100 µM | [2] > 100 µM | [3] > 100 µM | [9] > 100 µM | [4] > 100 µM | [5] > 100 µM | [6] 25.2 µM | [7] 24.3 µM | [8] 18.7 µM

CC1CCC2[C@@H](C)COC3O[C@]4(C)CCC1C32OO4 (stereo partly specified)
inactive: [1] > 100 µM | [2] > 100 µM | [3] > 100 µM | [9] > 100 µM | [4] 77.1 µM | [7] > 100 µM

CC(C)=CCC/C(C)=C/Cc1c(O)ccc2c1[nH]c1cc(O)c(C)cc12
inactive: [1] 14.1 µM | [2] 13.8 µM | [3] 11 µM | [4] 10.1 µM | [5] 15.5 µM | [7] > 25 µM | [8] 24.7 µM

CN(C)CCN1CCc2c([nH]c3ccccc23)C1c1cccnc1 (stereo unspecified)
inactive: [1] > 100 µM | [2] > 100 µM | [3] > 100 µM | [9] > 100 µM | [5] > 100 µM | [7] > 100 µM

Cc1nc(-c2ccccc2)cc2c1c(=O)oc1ccccc12
inactive: [1] > 100 µM | [2] > 100 µM | [3] > 100 µM | [9] > 100 µM | [4] > 100 µM | [6] > 100 µM | [7] > 100 µM

CCN(CC)CCCC(C)Nc1c2cc(OC)cc(C)c2nc2c(C)c(Cl)ccc12 (stereo unspecified)
inactive: [1] 1.53 µM | [2] 1.93 µM | [3] 1.71 µM | [9] 1.56 µM | [4] 1.58 µM | [5] 1.75 µM | [6] 1.79 µM | [7] 2.14 µM

Cc1nc(C(=O)O)c2ccccc2n1
inactive: [1] > 100 µM | [2] > 100 µM | [3] > 100 µM | [4] > 100 µM | [7] > 100 µM

COc1ccc(C(=O)c2c(C(C(=O)c3ccc(OC)cc3)C(=O)c3ccc(OC)cc3)n(C(=O)c3ccc(OC)cc3)c3ccccc23)cc1
inactive: [1] > 100 µM | [2] > 100 µM | [3] > 100 µM | [4] > 100 µM | [5] > 100 µM | [7] > 100 µM | [8] > 100 µM

CC/C=C/c1cc2c(c3[nH]ccc13)[C@@H](C)CC2C.CC/C=C/c1cc2cc[nH]c2c2c1C(C)C[C@@H]2C.CCc1cc2c(c3[nH]ccc13)[C@@H](C)CC2C (stereo partly specified)
inactive: [1] 13.5 µM | [2] 16.8 µM | [3] 15.4 µM | [9] 13.5 µM | [4] 16.4 µM | [5] 18.3 µM | [7] 17.2 µM

CCN(CC)/C(=C\Cl)Nc1ccccn1.[O-][Cl+3]([O-])([O-])O
inactive: [1] > 100 µM | [2] > 100 µM | [3] > 100 µM | [9] > 100 µM | [4] > 100 µM | [5] > 100 µM | [6] > 100 µM | [7] > 100 µM | [8] > 100 µM

O=c1[nH]c(=O)n(C2OC(CO)C(O)C2O)cc1/N=N/NCc1ccccc1 (stereo unspecified)
inactive: [1] > 60.1 µM | [2] > 66.5 µM | [3] > 71.6 µM | [9] > 100 µM | [4] 98.2 µM | [5] > 100 µM | [6] > 100 µM | [7] > 100 µM | [8] > 100 µM

CCCNC(=O)c1cc2ccccc2cc1C(=O)OC
inactive: [1] > 100 µM | [2] > 100 µM | [3] > 100 µM | [9] > 100 µM | [4] > 100 µM | [5] > 100 µM | [6] > 100 µM | [7] > 100 µM | [8] > 100 µM

CCCCCCCC(=O)OCC1OC(n2cc(F)c(=O)[nH]c2=O)C(N)C(OC(=O)CCCCCCC)C1O (stereo unspecified)
inactive: [3] 16.6 µM | [4] 17.1 µM | [5] 20.2 µM | [7] 20 µM

Nn1c(-c2ccccc2Cl)nc2ccccc2c1=O
inactive: [1] > 100 µM | [2] > 100 µM | [3] > 100 µM | [9] 44.8 µM | [4] > 100 µM | [5] > 100 µM | [6] > 100 µM | [7] > 100 µM | [8] > 100 µM

CCCCOC(=O)NC(=O)c1cn(CCCOC(=O)CCCCCCCCC(=O)OCCCn2cc(C(=O)NC(=O)OCCCC)c(=O)n(C)c2=O)c(=O)n(C)c1=O
inactive: [1] > 100 µM | [2] > 100 µM | [3] > 100 µM | [4] > 100 µM | [5] > 100 µM | [6] > 100 µM | [7] > 100 µM | [8] > 100 µM

[O-][S+](Cc1cc2c(cc1Br)OCO2)c1ccccc1 (stereo unspecified)
inactive: [1] 24.2 µM | [2] 23.2 µM | [3] 58.9 µM | [9] 41.3 µM | [4] 44 µM | [5] 44.5 µM | [7] > 100 µM

Cc1nc(Nc2ccc(Cl)cc2)sc1C(=O)NNc1ccc([N+](=O)[O-])cc1[N+](=O)[O-]
inactive: [1] 14.2 µM | [2] 14.6 µM | [3] 19.5 µM | [9] 14 µM | [4] 17.1 µM | [5] 22 µM | [7] 39.1 µM | [8] 16.9 µM
